Data: US12185750B2, “Acyl nornicotines reduce sensory irritation in tobacco and nicotine products” (Altria Client Services LLC, priority 2015, dated 2025)
Where two headings read alike, the source gives them in different places.

What was measured:
[1] = tested on: nicotine triggered release of CGRP in tracheal tissue; assay: nicotine triggered CGRP release in mouse tracheal tissue; format: cell-based
Method: Mouse tracheal tissue samples are treated with N-Hexanoylnornicotine (10 μM) for 10 minutes. After five minutes of exposure, Nicotine (100 μM) is added to the tracheal tissue samples for the remaining five minutes of N-Hexanoylnornicotine exposure. CGRP release is measured for 15 minutes starting at the time point of N-Hexanoylnornicotine exposure. Control samples are exposed to Nicotine (100 μM) without the addition of N-Hexanoylnornicotine. […]
(§1) FIGS. 2-8 show the results of studies on the effect of acyl nornicotine on nicotine triggered release of CGRP. CGRP is a biomarker of sensory irritation, specifically a marker of neurogenic inflammation. Tracheal or buccal mouse tissue samples were each treated with N-Hexanoylnornicotine or N-Octanoylnornicotine prior to exposure to nicotine or potassium chloride (KCl), used as a control. The test compounds were provided in a synthetic interstitial fluid and the release of CGRP was measured.

[2] = tested on: tracheal potassium chloride (KCl) response; assay: KCl triggered CGRP release in mouse tracheal tissue (control); format: cell-based; settings: 10 μM compound, KCl 60 mM, FIG. 3
Method: As in FIG. 2, mouse tracheal tissue samples are treated with N-Hexanoylnornicotine (10 μM) for 10 minutes. After five minutes of exposure, KCl (60 mM) is added to the tracheal tissue samples for the remaining five minutes N-Hexanoylnornicotine exposure. CGRP release is measured for 15 minutes starting at the time point of N-Hexanoylnornicotine exposure. Control samples are exposed to KCl (60 mM) without the addition of N-Hexanoylnornicotine.
as §1

[3] = tested on: nicotine triggered release of CGRP in buccal tissue; assay: nicotine triggered CGRP release in mouse buccal tissue; format: cell-based; settings: for effect on buccal nicotine response (CGRP release): 20 mM compound, Nicotine 20 mM, equimolar, FIG. 8
Method: Mouse buccal tissue samples are treated with 10 μM or 1 μM of N-Hexanoylnornicotine for 10 minutes. After five minutes of exposure, Nicotine (10 mM) is added to the buccal tissue samples for five minutes. CGRP release is measured for 15 minutes starting at the time point of N-Hexanoylnornicotine exposure. Control samples are exposed to Nicotine (10 mM) without the addition of N-Hexanoylnornicotine.
Mouse buccal tissue samples were treated with N-Hexanoylnornicotine (20 mM) or N-Octanoylnornicotine (20 mM) for 10 minutes. After 5 minutes of exposure, Nicotine (20 mM) was added to the […] tissue samples for five minutes. CGRP release is measured for 20 minutes starting five minutes prior to the time point of N-Octanoylnornicotine and N-Hexanoylnornicotine exposure. Control samples are exposed to Nicotine (20 mM) without the addition of N-Octanoylnornicotine or N-Hexanoylnornicotine.
as §1

[4] = target: T1, human nicotinic acetylcholine receptor α3β4 (nACHR α3β4) (Homo sapiens, UniProt P30926+P32297); assay: calcium influx in HEK293 cells expressing nACHR α3β4, co-applied with nicotine; format: cell-based
T1 construct: expressed in transfected cells; host or cells: HEK293
Method: Human cell line HEK293 were designed to express human nicotinic acetylcholine receptor α3β4 (nACHR α3β4), which is a receptor associated with sensory irritation. These cells were plated on 96 well plates and acyl nornicotines were co-applied with a concentration of nicotine sufficient to yield 100% cell activation of the receptor. The influx of calcium into the cell is measured as an indicator of receptor activation.

[5] = half-tongue test: acyl nornicotine pre-treatment before nicotine solution; format: in vivo, human
Method: The effect of pre-treatment with acyl nornicotine on sensory irritation from nicotine was tested using half-tongue test. N-Octanoylnornicotine was applied to tongues of human volunteers prior to application of a nicotine solution. Randomized sides of tongues were selected for application of liquid test sample or liquid control sample on filter paper. The liquid test sample or liquid control sample was applied to one side of a subject's tongue or the other. Blinded N-Octanoylnornicotine or water on filter paper was applied to the subject's tongue for 2 minutes, and then removed. […] After a 30 second wait, filter papers with added nicotine solutions were applied to the spots on the tongue where the pre-treatment filter papers had been applied. Over the following 2 minutes, subjects were asked to note sensory perceptions. Samples containing N-Octanoylnornicotine were at 10% of the level of the nicotine challenge samples.

[6] = HEK293 nACHR α3β4, calcium influx

T1 sequence (P32297 32-505): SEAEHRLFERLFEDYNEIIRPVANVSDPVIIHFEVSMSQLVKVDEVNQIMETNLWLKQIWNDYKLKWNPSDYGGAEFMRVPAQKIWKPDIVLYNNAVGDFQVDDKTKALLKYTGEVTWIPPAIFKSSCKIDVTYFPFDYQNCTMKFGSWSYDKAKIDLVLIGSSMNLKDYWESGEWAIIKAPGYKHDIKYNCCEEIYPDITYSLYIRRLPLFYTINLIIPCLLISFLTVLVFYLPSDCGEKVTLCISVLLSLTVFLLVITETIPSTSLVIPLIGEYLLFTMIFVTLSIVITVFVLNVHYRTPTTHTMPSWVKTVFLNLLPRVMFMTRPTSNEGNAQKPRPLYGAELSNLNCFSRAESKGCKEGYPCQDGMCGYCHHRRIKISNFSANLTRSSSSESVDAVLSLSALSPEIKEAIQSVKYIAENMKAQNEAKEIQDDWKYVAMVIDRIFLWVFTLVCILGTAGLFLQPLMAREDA
T1 sequence (P30926 22-498): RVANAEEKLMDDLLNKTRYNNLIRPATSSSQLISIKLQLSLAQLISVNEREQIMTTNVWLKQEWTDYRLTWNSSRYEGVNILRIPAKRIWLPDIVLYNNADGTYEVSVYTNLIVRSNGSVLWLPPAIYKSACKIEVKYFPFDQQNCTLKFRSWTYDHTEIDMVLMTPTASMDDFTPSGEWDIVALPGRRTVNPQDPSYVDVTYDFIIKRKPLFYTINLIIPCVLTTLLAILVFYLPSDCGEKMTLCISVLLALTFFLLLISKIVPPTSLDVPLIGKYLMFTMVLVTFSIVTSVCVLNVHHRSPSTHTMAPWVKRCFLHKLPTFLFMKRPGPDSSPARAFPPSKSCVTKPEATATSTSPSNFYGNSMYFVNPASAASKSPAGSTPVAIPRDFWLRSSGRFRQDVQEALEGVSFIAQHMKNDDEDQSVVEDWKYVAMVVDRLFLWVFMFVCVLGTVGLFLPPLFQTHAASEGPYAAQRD

Structure (SMILES)	effect on specific tracheal nicotine response (CGRP release) ([1]; 10 μM compound, Nicotine 100 μM, FIG. 2)	effect on tracheal supramaximal nicotine response (TRPA1/V1 mediated, CGRP release) ([1]; 10 μM compound, Nicotine 10 mM, FIG. 4)	effect on tracheal KCl response (CGRP release) [2]	effect on buccal supramaximal nicotine response (TRPA1/V1 mediated, CGRP release) ([3]; 10 μM compound, Nicotine 10 mM, FIG. 5)	effect on buccal nicotine response (CGRP release) [3]	calcium influx inhibited ([4]; 1:1 acyl nornicotine:nicotine) [%]	calcium influx inhibited ([4]; 1:10 acyl nornicotine:nicotine) [%]	Activation (threshold) [4, 6] [mM]	IC50 ([4]; HEK293 nACHR α3β4, calcium influx, v 70 μM nicotine, read-out: Inhibition (IC50 v 70 μM nicotine)) [nM]	effect on specific tracheal nicotinic response (CGRP release) ([1]; 100 μM compound, Nicotine 100 μM, equimolar, FIG. 6)	effect on basal tracheal response (CGRP release) ([1]; 100 μM compound, before nicotine, FIG. 6)	effect on specific and supramaximal tracheal nicotine response (CGRP release) ([1]; 10 mM compound, Nicotine 10 mM, equimolar, FIG. 7)	relative potency, C8 versus C6 acyl nornicotine ([1]; CGRP release in mouse tissue (tracheal/buccal not specified))	IC50 [4] [nM]	calcium influx inhibited ([4]; 1:100 acyl nornicotine:nicotine) [%]	relative potency, C8 versus C6 acyl nornicotine ([4]; calcium influx, co-applied with nicotine)	sensation from the compound itself on the tongue ([5]; applied on filter paper for 2 minutes, human volunteers)	irritation/burn from nicotine after pre-treatment ([5]; compound at 10% of the level of the nicotine challenge, versus water side)
CCCCCC(=O)N1CCCC1c1cccnc1 (stereo not drawn) [N-Hexanoylnornicotine]	abolishes the specific tracheal nicotine response	does not change the tracheal supramaximal nicotine response	does not change the KCl response	does not change the buccal supramaximal nicotine response	prevent the buccal nicotine response	100	50	10	5000									
CCCCCCCC(=O)N1CCCC1c1cccnc1 (stereo not drawn) [N-Octanoylnornicotine]					prevent the buccal nicotine response		100	1		abrogates the specific tracheal nicotinic response	lowers basal tracheal nicotine response	abrogates the specific and supramaximal nicotine response	more potent than a shorter chain (C6) acyl nornicotine	500	50	more potent than shorter chain (C6) acyl nornicotine	tingling or burning sensation	obvious reduction in irritation/burn
